How the values were obtained:
[1] = Optical density of dye solution; format: physicochemical; conditions: 200 ppb solution in water at 10 cm; extrapolated from measurement in ethanol solutions at higher levels
[2] = LogP of dye; format: physicochemical

Compound	OD 10 cm [1]	logP [2]
COc1cc(/N=N/c2c(Br)cc([N+](=O)[O-])cc2[N+](=O)[O-])c(NC(C)=O)cc1N(CCOC(C)=O)CCOC(C)=O [Disperse Blue 79:1]	0.048	4.5
CCN(CC)c1ccc(/N=N/c2c(C#N)cc([N+](=O)[O-])cc2C#N)c(NC(C)=O)c1 [Disperse Blue 165]	0.014	3.5
Disperse Blue 367	0.0067	–

Other lines, results leading:

OD 10 cm [1]	logP [2]	Compound
0.26	4.5	CN=C1C=CC(=C(c2ccc(N(C)C)cc2)c2ccc(N(C)C)cc2)C=C1 [Solvent Violet 8, Solvent Violet 8 (Methyl Violet B Base)]
0.023	4	CCN(CCO)c1ccc(/N=N/c2ccc([N+](=O)[O-])cc2)cc1 [disperse red 1]
0.11	8.5	CC1(C)Nc2cccc3c(/N=N/c4ccc(/N=N/c5ccccc5)c5ccccc45)ccc(c23)N1 [solvent black 3]
0.33	–	Solvent blue 43
